The nature of data set [1]: Cytotoxic evaluation on the Hela cell line (MTT assay). The data set is classed as cell-based. The note with it: human, Hela cells. The protocol:
The evaluation of the tested molecules’ cytotoxicity on the Hela cell line was conducted according to the method of Mosman with slight modifications. Briefly, cells (1 × 10^5 cells/mL) in 100 µL of complete medium, (MEM supplemented with 10% fetal bovine serum, 2 mM L-glutamine and antibiotics (100 U/mL penicillin and 100 µg/mL streptomycin) were seeded into each well of the 96-well plates and incubated at 37 °C and 5% CO2. After a 24 h incubation, 100 µL of medium with various product concentrations and appropriate controls were added and the plates were incubated for 72 h at 37 °C and 5% CO2. Each plate-well was then microscope-examined to detect possible precipitate formation before the medium was aspirated from the wells. MTT solution (100 µL, 0.5 mg/mL in RPMI) was then added to each well. Cells were incubated for 2 h at 37 °C and 5% CO2. After this time, the MTT solution was removed and DMSO (100 µL) was added to dissolve the resulting formazan crystals. Plates were shaken vigorously (300 rpm) for 5 min. The absorbance was measured at 570 nm with a microplate spectrophotometer (Eon BioTek). DMSO was used as blank and doxorubicin (purchased from Sigma Aldrich) as positive control. CC50 were calculated by non-linear regression analysis processed on dose response curves, using TableCurve 2D V5 software (San Jose, CA, USA). CC50 values represent the mean value calculated from three independent experiments.

Another data set concerns P. berghei ANKA. Briefly: Four-days suppressive test, P. berghei ANKA mice model (cerebral malaria). The data set is classed as in vivo, Plasmodium berghei ANKA in Swiss mice. To be noted: for survival rate on D10: 50 mg/kg intraperitoneal D0 to D3, D10. The protocol: As previously described, the four-days suppressive standard test described by Knight and Peters was used to evaluate antimalarial activity of Compounds 1 and 3. P. chabaudi chabaudi (Pcc) and P. berghei ANKA (PbA) infections in Swiss mice were used as experimental models for uncomplicated and cerebral malaria, respectively. […] On the first day (D0), mice were inoculated intraperitoneally with 0.2 mL of infected blood containing about 1 × 10^6 parasitized erythrocytes. […] All mice groups were treated similarly for four consecutive days (D0–D3). Weight, parasitemia and survival were followed daily. To follow peripheral parasite density, thin blood smears were made daily from tail blood from D3 to D14. Blood smears were fixed with methanol and stained with a fast-acting variation of the May–Grünwald Giemsa staining (RAL 555 kit, RAL diagnostics). Average percentage chemosuppression was calculated at D8 for both infection models as ((A − B)/A) × 100 where A is the average percentage parasitemia in the negative control group and B is the average percentage parasitemia in the test group. Survival was monitored twice daily. The percentage survival was determined over a period of 21 days (D0–D20) and compared between groups.

[2] abbreviates: 50 mg/kg intraperitoneal D0 to D3.

The structures appear in SMILES notation.

We go through two molecules from article PMC6832513, “Antimalarial Properties of Dunnione Derivatives as NQO2 Substrates” (Molecules, 2019).

Consider `COc1cccc2c1C1=C(C(=O)C2=O)C(C)(C)C(C)O1` (stereo not shown) [Compound 1], for which the CC50 at 72 h in data set [1] came out at 2420 ± 905 nM. For the same molecule, in the data set on P. berghei ANKA (setting [2]), the “effect on weight loss and parasitemia during PbA infection” value was “did not limit either weight loss or parasitemia”; the “superiority over DMSO (survival)” value was “statistically significant until D15”. The “survival rate on D10” value in the data set with P. berghei ANKA is on record as 80%.

As to `COc1ccc2c(c1)C(=O)C(=O)C1=C2OC(C)C1(C)C` (stereo not shown) [Compound 3], half-maximal cytotoxicity in data set [1] (CC50 at 72 h) was put at 1430 ± 314 nM. For the same molecule, the “effect on weight loss and parasitemia during PbA infection” value in the data set on P. berghei ANKA (setting [2]) is recorded as “did not limit either weight loss or parasitemia”. Moreover, the “survival rate on D10” value with P. berghei ANKA stood at 100%.
